Data on 16 compounds can be found in ChEMBL document CHEMBL5634157, “Design and synthesis of certain 7-Aryl-2-Methyl-3-Substituted Pyrazolo{1,5-a}Pyrimidines as multikinase inhibitors” (Eur J Med Chem, 2023).

The target in data set [1] is T1, Serine/threonine-protein kinase Chk1 (Homo sapiens, UniProt O14757).
T1 sequence (O14757 whole entry): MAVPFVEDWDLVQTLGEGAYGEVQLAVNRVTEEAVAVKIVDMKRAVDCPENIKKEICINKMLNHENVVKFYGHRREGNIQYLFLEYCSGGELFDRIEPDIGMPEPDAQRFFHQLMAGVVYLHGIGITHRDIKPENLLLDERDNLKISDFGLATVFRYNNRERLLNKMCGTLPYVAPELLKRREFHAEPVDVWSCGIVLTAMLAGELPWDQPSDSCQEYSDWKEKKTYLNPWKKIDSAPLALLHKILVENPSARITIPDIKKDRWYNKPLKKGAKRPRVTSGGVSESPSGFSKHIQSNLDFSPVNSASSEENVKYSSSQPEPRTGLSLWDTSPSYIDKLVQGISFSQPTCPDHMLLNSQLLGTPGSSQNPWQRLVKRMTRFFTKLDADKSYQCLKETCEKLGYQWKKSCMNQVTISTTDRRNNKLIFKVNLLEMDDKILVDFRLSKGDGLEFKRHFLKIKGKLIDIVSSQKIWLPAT
Nature of the data set: Inhibition of human recombinant CHK1 using CHKtide as substrate in presence of ATP by ADP-Glo luminescence kinase assay.

For data set [2], the target named is Cyclin-dependent kinase 2 (Homo sapiens, UniProt P24941). Description: Inhibition of human CDK2 by ELISA analysis.
For data set [3], the target named is Casein kinase II subunit alpha (Homo sapiens, UniProt P68400). Description: Inhibition of human recombinant full-length C-terminal His tagged-CK2 alpha expressed in Escherichia coli using tetra-methylbenzidine as substrate in presence of ATP by ELISA analysis. For orientation: An ELISA detects its analyte on a solid surface through an enzyme-linked reagent.
Casein kinase II subunit alpha, sequence (P68400 whole entry): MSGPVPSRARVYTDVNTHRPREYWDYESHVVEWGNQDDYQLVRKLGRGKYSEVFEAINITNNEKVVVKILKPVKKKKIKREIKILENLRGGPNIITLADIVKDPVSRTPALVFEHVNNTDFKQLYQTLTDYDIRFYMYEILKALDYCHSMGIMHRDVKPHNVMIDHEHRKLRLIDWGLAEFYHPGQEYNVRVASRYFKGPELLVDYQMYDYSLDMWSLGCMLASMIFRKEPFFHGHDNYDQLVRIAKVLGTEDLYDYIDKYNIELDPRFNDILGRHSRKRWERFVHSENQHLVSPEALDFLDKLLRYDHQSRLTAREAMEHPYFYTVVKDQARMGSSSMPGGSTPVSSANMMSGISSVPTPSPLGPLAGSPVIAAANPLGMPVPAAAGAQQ
Data set [4] concerns the target Serine/threonine-protein kinase pim-1 (Homo sapiens, UniProt P11309). Nature of the data set: Inhibition of human recombinant full-length PIM1 expressed in baculovirus infected Sf9 cells using S6K as substrate in presence of ATP by ADP-Glo luminescence kinase assay. For orientation: ADP-Glo first removes unused ATP, then detects ADP through luciferase.
A further data set has as its target T2, Activin receptor type-1 (Homo sapiens, UniProt Q04771).
T2 sequence (Q04771 whole entry): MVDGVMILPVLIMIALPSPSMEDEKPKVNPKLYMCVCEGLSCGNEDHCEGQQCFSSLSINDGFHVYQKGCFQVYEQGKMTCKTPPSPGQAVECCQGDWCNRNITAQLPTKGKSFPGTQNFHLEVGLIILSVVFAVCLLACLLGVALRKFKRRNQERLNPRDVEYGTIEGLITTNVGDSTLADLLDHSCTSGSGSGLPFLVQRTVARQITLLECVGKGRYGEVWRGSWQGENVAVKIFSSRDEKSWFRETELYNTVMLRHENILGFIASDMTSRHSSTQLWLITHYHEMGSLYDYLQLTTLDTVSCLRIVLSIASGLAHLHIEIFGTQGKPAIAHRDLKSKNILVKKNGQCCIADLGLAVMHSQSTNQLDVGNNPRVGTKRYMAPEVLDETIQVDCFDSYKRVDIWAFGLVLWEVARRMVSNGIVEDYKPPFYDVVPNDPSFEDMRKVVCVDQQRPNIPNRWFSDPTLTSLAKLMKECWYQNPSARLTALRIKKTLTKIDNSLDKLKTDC
Nature of the data set: Inhibition of human recombinant GST-tagged-ALK2 (147 to 509 residues) using Casein as substrate in presence of ATP by ADP-Glo luminescence assay.

Data set [5] concerns the target T3, Activin receptor type-1 (Homo sapiens) (UniProt Q04771).
T3 sequence (whole entry): T2 sequence (Q04771 whole entry)
Description: Inhibition of ALK2 in human EKVX cells by Western blotting analysis. The data set is classed as cell-based. For orientation: A western blot detects proteins with antibodies after separation by electrophoresis.

For data set [6], the target named is Mast/stem cell growth factor receptor Kit (Homo sapiens, UniProt P10721). Nature of the data set: Inhibition of human recombinant N-terminal GST tagged-c-KIT (544 to end residues) expressed in baculovirus infected Sf9 cells using Poly (Glu,Tyr) 4:1 as substrate in presence of ATP by ADP-Glo luminescence kinase assay.
In data set [7] the target is Proto-oncogene tyrosine-protein kinase ROS (Homo sapiens, UniProt P08922). Description: Inhibition of human recombinant GST tagged-ROS1 using IRF-1Rtide as substrate in presence of ATP by ADP-Glo luminescence kinase assay.
Proto-oncogene tyrosine-protein kinase ROS, sequence (P08922 whole entry): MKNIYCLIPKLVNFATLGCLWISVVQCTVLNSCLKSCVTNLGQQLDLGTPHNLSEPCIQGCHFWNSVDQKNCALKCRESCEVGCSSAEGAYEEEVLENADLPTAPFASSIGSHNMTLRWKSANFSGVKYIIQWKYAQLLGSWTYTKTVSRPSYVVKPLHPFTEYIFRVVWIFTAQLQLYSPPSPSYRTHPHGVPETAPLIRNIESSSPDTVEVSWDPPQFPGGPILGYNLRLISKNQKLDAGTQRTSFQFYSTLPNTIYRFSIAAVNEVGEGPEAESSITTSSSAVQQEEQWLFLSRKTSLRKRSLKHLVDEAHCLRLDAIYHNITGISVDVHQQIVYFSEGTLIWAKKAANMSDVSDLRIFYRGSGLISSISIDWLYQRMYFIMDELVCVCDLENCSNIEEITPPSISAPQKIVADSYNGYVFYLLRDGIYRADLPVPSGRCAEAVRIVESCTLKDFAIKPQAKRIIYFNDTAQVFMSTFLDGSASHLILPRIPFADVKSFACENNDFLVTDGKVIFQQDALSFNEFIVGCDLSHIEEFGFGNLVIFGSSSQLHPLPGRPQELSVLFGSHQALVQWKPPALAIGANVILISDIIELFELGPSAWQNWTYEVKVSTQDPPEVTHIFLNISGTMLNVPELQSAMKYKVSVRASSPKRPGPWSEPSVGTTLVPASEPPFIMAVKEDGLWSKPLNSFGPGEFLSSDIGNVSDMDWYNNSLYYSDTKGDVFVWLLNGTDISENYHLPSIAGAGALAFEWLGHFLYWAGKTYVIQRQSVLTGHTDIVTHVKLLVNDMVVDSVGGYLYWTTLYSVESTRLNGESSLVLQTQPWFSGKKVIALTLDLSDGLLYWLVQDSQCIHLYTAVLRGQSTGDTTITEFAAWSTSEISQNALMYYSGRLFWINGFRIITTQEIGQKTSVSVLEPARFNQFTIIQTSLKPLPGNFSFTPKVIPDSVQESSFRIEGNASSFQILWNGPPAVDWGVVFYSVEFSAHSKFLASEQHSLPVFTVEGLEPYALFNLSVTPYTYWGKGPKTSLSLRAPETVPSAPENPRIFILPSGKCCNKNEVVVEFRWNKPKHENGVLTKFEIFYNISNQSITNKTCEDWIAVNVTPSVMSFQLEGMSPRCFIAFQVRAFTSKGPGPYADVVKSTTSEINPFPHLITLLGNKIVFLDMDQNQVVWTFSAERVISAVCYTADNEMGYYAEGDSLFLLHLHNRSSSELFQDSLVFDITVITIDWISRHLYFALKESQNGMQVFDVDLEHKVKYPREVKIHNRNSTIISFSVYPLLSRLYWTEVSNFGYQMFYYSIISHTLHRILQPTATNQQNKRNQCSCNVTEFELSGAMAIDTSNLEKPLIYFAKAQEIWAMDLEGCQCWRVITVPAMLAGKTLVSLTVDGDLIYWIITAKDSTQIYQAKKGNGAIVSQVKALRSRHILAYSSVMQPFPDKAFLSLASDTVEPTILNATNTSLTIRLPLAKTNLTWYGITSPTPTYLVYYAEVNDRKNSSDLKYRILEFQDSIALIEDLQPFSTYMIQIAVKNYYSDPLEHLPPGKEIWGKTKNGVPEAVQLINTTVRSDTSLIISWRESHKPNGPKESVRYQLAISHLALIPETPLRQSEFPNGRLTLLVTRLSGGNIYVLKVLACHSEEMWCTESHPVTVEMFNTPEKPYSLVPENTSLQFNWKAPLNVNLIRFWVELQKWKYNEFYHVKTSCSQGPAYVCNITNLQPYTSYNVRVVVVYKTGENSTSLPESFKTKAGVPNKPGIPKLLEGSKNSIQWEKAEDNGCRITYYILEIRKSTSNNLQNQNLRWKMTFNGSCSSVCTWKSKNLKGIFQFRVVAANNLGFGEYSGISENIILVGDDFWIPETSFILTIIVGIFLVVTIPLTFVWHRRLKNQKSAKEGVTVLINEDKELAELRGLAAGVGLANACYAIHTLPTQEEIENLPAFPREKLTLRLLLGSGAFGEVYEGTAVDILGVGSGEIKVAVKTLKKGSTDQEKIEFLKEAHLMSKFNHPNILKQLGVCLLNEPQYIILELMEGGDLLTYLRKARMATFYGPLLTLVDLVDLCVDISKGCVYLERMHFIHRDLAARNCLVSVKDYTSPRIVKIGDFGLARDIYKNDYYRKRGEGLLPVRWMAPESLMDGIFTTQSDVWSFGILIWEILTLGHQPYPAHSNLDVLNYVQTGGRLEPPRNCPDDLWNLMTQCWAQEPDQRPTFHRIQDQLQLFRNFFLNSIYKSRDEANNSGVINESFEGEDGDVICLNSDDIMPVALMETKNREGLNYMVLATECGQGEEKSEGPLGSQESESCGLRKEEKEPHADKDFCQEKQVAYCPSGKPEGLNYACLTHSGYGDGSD
The target in data set [8] is Proto-oncogene tyrosine-protein kinase receptor Ret (Homo sapiens, UniProt P07949). Nature of the data set: Inhibition of human recombinant GST tagged-RET using IRF-1Rtide as substrate in presence of ATP by ADP-Glo luminescence kinase assay.
Proto-oncogene tyrosine-protein kinase receptor Ret, sequence (P07949 whole entry): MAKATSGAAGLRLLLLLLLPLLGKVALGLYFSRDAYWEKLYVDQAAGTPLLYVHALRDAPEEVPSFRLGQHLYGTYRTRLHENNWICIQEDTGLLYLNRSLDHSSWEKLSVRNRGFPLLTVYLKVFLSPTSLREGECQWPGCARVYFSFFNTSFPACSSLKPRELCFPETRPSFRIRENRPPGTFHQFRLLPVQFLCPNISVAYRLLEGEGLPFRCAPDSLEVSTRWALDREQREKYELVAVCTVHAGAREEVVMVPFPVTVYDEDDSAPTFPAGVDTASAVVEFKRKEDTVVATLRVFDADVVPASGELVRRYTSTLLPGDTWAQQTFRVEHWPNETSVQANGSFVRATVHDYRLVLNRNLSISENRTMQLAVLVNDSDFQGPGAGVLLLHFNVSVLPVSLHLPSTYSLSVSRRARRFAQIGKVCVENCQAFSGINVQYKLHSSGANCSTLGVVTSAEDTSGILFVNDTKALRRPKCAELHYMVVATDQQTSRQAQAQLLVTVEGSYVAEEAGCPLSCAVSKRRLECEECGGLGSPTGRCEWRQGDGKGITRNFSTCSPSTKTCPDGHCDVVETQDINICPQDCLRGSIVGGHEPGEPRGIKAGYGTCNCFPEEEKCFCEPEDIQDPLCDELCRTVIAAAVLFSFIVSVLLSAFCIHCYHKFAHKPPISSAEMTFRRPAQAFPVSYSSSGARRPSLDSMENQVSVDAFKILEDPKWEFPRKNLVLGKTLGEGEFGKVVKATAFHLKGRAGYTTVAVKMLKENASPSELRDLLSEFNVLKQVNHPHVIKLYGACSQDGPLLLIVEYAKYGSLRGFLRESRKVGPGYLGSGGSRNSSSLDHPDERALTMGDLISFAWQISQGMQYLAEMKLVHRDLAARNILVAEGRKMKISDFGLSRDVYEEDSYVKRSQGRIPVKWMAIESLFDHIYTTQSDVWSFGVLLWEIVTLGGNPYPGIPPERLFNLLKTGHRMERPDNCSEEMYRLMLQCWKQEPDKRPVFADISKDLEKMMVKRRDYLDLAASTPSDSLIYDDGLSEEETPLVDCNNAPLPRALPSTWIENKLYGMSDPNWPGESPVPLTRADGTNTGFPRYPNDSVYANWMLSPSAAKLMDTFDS
Data set [9] has as its target Epidermal growth factor receptor (Homo sapiens, UniProt P00533). Nature of the data set: Inhibition of human recombinant GST tagged-EGFR using Poly (Glu,Tyr) 4:1 as substrate in presence of ATP by ADP-Glo luminescence kinase assay.
Data set [10] in a line: Inhibition of human recombinant FLT3 using myelin basic protein as substrate in presence of ATP by ADP-Glo luminescence kinase assay.
Data set [11] can be described thus: Cytotoxicity against human FHCs assessed as inhibition of cell viability by MTT assay. The data set is classed as toxicity, cell-based. The conditions noted are these: FHC cells.
A short description of data set [12]: Cytotoxicity against human MCF-10A cells assessed as inhibition of cell viability by MTT assay. In kind it is toxicity, cell-based.
The next data set concerns EKVX. Description: Antiproliferative activity against human EKVX cells assessed as inhibition of cell viability by MTT assay.
In a further data set the test system is KM12. Description: Antiproliferative activity against human KM12 cells assessed as inhibition of cell viability by MTT assay.

Active and inactive are the calls of the source. The rule behind the calls is not given here.

Serine/threonine-protein kinase pim-1, sequence (P11309 whole entry): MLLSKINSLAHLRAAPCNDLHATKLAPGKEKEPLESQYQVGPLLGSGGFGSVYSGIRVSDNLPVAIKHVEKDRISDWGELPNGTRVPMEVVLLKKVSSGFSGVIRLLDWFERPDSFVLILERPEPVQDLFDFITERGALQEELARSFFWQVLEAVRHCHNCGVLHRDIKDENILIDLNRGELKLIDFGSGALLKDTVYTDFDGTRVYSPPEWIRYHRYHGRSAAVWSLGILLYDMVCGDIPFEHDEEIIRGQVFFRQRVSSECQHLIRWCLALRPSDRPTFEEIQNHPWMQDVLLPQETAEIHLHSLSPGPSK

Regarding `Cc1nc(-c2c(C)nn3c(-c4ccccc4)ccnc23)no1`, the figures for the IC50 in [1], in [2] and in data set [3] were 119 nM, 1290 nM and 289 nM, respectively.

For the compound `O=c1c(O)c(-c2cc(O)c(O)c(O)c2)oc2cc(O)cc(O)c12` [MYRICETIN], the IC50 in data set [4] worked out at 4060 nM.

Take `Cc1ccc(-c2ccnc3c(C#N)c(C)nn23)cc1`: at Activin receptor type-1, the IC50 is 55 nM.

In the case of `C[C@H]1Oc2cc(cnc2N)-c2c(nn(C)c2C#N)CN(C)C(=O)c2ccc(F)cc21` [LORLATINIB], the inhibition result in [5] was “Active”. For the same compound, the IC50 on Activin receptor type-1 came to 29 nM.

As for `Cc1nn2c(-c3ccccc3)ccnc2c1/C(N)=N/O`, the IC50 turned out to be 85 nM in [1], 1730 nM in data set [2] and 72 nM in [3].

On to `COc1ccc(-c2ccnc3c(-c4noc(C)n4)c(C)nn23)cc1`, for which the IC50 in [1] was determined as 156 nM; in data set [6] it was 59 nM; in data set [2] it was 710 nM; in data set [7] it was 759 nM; in data set [8], 537 nM; in [9] it was 106 nM. The IC50 in [3] stood at 93 nM; on Activin receptor type-1 it was 37 nM.

Consider `Cc1nn2c(-c3ccc(Br)cc3)ccnc2c1C#N`, for which, on Activin receptor type-1, the IC50 worked out at 105 nM.

For the compound `Cc1nn2c(-c3ccc(Cl)cc3)ccnc2c1/C(N)=N/O`, the IC50 turned out to be 327 nM in data set [1], 1070 nM in data set [2] and 217 nM in data set [3].

Turning to `Cc1nn2c(-c3ccc(Cl)cc3)ccnc2c1C(N)=O`, at Activin receptor type-1, the IC50 amounted to 182 nM.

As for `Cc1nn2c(-c3ccc(Br)cc3)ccnc2c1/C(N)=N/O`, the values for the IC50 in data set [1], in data set [2] and in [3] were 74 nM, 590 nM and 122 nM, respectively.

For the compound `CCc1nc(C(N)=O)c(Nc2ccc(N3CCC(N4CCN(C)CC4)CC3)c(OC)c2)nc1NC1CCOCC1` [GILTERITINIB], the IC50 in [10] stood at 64 nM.

Take `Cc1nn2c(-c3ccc(Br)cc3)ccnc2c1C(N)=O`: on Activin receptor type-1, the IC50 stood at 354 nM.

As to `COc1cccc2c1C(=O)c1c(O)c3c(c(O)c1C2=O)C[C@@](O)(C(=O)CO)C[C@@H]3O[C@H]1C[C@H](N)[C@H](O)[C@H](C)O1` [DOXORUBICIN], the half-inhibitory concentration (IC50) in [11] came to 17600 nM; in [12], 13400 nM.

For `Cc1nn2c(-c3ccc(Cl)cc3)ccnc2c1C#N`, the 50% inhibitory concentration (IC50) on Activin receptor type-1 turned out to be 235 nM.

`O=C(Nc1cnn2ccc(N3CCC[C@@H]3c3cc(F)ccc3F)nc12)N1CC[C@H](O)C1` [LAROTRECTINIB]: the values for the IC50 in the data set on EKVX and in the data set on KM12 were 7330 nM and 4680 nM, respectively.

Consider `Cn1cc(-c2cnn3c(N)cc([C@@H]4CCCNC4)nc23)cn1`, for which the IC50 in data set [1] was determined as 34 nM.

What is called IC50 is the concentration that inhibits the measured activity by half.
